Test results taken from patent publication US10221173B2, “Chemical compounds” (AstraZeneca AB, priority 2017, dated 2019).
Converted amounts (≈) assume the structure as drawn.

What was measured:
[1] = Thermodynamic solubility (shake-flask); type: physicochemical; conditions: aqueous phosphate buffer, 25 °C, pH 7.4, aqueous buffer, thermodynamic from solid, phosphate buffer pH 7.4, 24 hours
[2] = biological target: Estrogen Receptor (ERα) in MCF-7 cells (Homo sapiens (Human), UniProt P03372); assay: MCF-7 ER down-regulation assay (immuno-fluorescence); type: cell-based; conditions: for % downregulation (in brackets): maximum downregulation
Experimental: The ability of compounds to down-regulate Estrogen Receptor (ER) numbers was assessed in a cell based immuno-fluorescence assay using the MCF-7 human ductal carcinoma breast cell line. MCF-7 cells were revived directly from a cryovial (approx 5×10^6 cells) in Assay Medium (phenol red free Dulbecco's Modified Eagle's medium (DMEM); Sigma D5921) containing 2 mM L-Glutamine and 5% (v/v) Charcoal/Dextran treated foetal calf serum. Cells were syringed once using a sterile 18G×1.5 inch (1.2×40 mm) broad gauge needle and cell density was measured using a Coulter Counter (Beckman). […] Following cell seeding, plates were incubated overnight at 37° C., 5% CO2 (Liconic carousel incubator). Test data was generated using the LabCyte Echomodel 555 compound reformatter which is part of an automated workcell (Integrated Echo 2 workcell). Compound stock solutions (10 mM) of the test compounds were used to generate a 384 well compound dosing plate (Labcyte P-05525-CV1). […] 40 μL of DMSO added to wells in row P on the source plate allowed for DMSO normalisation across the dose range. To dose the control wells 40 μL of DMSO was added to row O1 and 40 μL of 100 μM fulvestrant in DMSO was added to row O3 on the compound source plate.
The Echo uses acoustic technology to perform direct microplate-to-microplate transfers of DMSO compound solutions to assay plates. The system can be programmed to transfer volumes as low as 2.5 nL in multiple increments between microplates and in so doing generates a serial dilution of compound in the assay plate which is then back-filled to normalise the DMSO concentration across the dilution range. […] The fixing method described above was carried out on the Integrated Echo 2 workcell. Immunostaining was performed using an automated AutoElisa workcell. The PBS/Proclin was aspirated from all wells and the cells permeabilised with 40 μL PBS containing 0.5% Tween™ 20 (v/v) for 1 hour at room temperature. The plates were washed three times in 250 μL of PBS/0.05% (v/v) Tween 20 with Proclin (PBST with a Biocide preservative) and then 20 μL of ERα (SP1) Rabbit monoclonal antibody (Thermofisher) 1:1000 in PBS/Tween™/3% (w/v) Bovine Serum Albumin was added. The plates were incubated overnight at 4° C. (Liconic carousel incubator) and then washed three times in 250 μL of PBS/0.05% (v/v) Tween™ 20 with Proclin (PBST). The plates were then incubated with 20 μL/well of a goat anti-rabbit IgG AlexaFluor 594 or goat anti-rabbit AlexaFluor 488 antibody (Molecular Probes) with Hoechst at 1:5000 in PBS/Tween™/3% (w/v) Bovine Serum Albumin for 1 hour at room temperature. The plates were then washed three times in 250 μL of PBS/0.05% (v/v) Tween™ 20 with Proclin (PBST with a Biocide preservative). 20 μL of PBS was added to each well and the plates covered with a black plate seal and stored at 4° C. before being read. […] The mean total intensity was normalized for cell number giving the total intensity per cell. The data was exported into a suitable software package (such as Origin) to perform curve fitting analysis.

[3] = biological target: recombinant human Estrogen Receptor alpha ligand binding domain (ER alpha-LBD (GST)) (Homo sapiens (Human), UniProt P03372); assay: ERα binding assay (LanthaScreen TR-FRET competition)
[4] = Log D (shake flask, 1-octanol/aqueous buffer); type: physicochemical; conditions: 1-octanol/aqueous buffer, pH 7.4, pH 7.4
[5] = Human plasma protein binding (equilibrium dialysis); type: in vitro ADME
Experimental: The automated equilibrium dialysis assay in human plasma uses the RED (Rapid Equilibrium Dialysis) Device and sample handling. The assay generally runs over two to three days including delivery of results. After dialysis for 18 hours, plasma and buffer samples are prepared for analysis by liquid chromatography and mass spectrometry. Samples are generally tested in singlicates and quantified by LC/MSMS by using a 7-point calibration curve in plasma. The compounds are pooled together in plasma pools up to 10 compounds. Three reference compounds are used in each run, Propranolol, Metoprolol and Warfarin. Warfarin is used as a control in each pool and Propranolol and Metoprolol are placed randomly in each run. An in-house Excel macro is used for preparation of files for the robot and the mass spectrometer and is also used for the calculations of fraction unbound (fu %) in plasma.

[6] = biological target: hERG potassium channel (Homo sapiens (Human), UniProt Q12809)
Sequence of hERG potassium channel (Q12809 whole entry): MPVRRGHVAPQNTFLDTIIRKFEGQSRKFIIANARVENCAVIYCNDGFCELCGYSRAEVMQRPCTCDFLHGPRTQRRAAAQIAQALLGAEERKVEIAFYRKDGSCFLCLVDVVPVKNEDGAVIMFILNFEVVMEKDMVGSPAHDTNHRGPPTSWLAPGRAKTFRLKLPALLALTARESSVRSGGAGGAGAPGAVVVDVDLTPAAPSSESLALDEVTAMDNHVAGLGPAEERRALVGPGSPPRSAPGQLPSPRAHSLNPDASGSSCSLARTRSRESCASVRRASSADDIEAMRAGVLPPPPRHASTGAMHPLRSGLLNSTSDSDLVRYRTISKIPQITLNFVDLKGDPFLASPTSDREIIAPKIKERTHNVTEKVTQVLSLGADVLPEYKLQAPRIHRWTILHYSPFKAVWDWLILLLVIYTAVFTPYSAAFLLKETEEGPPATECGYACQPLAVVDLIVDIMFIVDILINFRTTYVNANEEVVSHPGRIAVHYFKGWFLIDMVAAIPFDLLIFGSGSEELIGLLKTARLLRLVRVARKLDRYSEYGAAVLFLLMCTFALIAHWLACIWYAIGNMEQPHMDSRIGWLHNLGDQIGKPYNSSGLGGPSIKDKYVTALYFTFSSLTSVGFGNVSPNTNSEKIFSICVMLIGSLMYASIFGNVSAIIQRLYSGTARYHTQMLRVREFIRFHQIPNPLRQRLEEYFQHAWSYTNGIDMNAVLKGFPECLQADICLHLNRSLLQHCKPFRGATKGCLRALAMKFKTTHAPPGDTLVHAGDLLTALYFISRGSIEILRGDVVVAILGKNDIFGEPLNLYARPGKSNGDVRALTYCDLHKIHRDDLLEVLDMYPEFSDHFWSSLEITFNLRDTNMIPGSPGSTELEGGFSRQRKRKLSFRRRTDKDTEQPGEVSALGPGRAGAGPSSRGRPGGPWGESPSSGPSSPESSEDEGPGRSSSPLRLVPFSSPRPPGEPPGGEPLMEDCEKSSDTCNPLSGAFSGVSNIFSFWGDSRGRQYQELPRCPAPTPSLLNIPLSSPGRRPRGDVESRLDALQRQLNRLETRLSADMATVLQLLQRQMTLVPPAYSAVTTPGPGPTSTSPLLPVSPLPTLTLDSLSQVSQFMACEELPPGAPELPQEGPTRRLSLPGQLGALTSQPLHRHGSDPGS
Experimental: The assay was conducted as follows with all reagents used at room temperature unless otherwise stated.
All compounds were acoustically dispensed in quadruplicate using a Labcyte Echo.
Calculation of results is performed using APC package within Genedata. For the routine normalization of well data with Neutral and Inhibitor control well groups as reference, GeneData Assay Analyzer uses the following equation to normalize the signal values to the desired signal range:
[formula] x is the measured raw signal value of a well is the median of the measured signal values for the Central Reference (Neutral) wells on a plate is the median of the measured signal values for the Scale Reference (Inhibitor) wells on a plate CR is the desired median normalized value for the Central Reference (Neutral) SR is the desired median normalized value for the Scale Reference (Inhibitor)

Sequence of recombinant human Estrogen Receptor alpha ligand binding domain (ER alpha-LBD (GST)) (P03372 307-554): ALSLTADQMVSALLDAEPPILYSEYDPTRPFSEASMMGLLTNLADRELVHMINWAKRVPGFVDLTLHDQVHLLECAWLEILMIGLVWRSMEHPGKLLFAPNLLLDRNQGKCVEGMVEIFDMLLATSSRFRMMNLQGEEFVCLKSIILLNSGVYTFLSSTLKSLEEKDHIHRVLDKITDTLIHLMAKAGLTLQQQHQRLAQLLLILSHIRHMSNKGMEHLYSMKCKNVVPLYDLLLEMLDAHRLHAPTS
Sequence of Estrogen Receptor (ERα) in MCF-7 cells (P03372 whole entry, the tested form may be a part): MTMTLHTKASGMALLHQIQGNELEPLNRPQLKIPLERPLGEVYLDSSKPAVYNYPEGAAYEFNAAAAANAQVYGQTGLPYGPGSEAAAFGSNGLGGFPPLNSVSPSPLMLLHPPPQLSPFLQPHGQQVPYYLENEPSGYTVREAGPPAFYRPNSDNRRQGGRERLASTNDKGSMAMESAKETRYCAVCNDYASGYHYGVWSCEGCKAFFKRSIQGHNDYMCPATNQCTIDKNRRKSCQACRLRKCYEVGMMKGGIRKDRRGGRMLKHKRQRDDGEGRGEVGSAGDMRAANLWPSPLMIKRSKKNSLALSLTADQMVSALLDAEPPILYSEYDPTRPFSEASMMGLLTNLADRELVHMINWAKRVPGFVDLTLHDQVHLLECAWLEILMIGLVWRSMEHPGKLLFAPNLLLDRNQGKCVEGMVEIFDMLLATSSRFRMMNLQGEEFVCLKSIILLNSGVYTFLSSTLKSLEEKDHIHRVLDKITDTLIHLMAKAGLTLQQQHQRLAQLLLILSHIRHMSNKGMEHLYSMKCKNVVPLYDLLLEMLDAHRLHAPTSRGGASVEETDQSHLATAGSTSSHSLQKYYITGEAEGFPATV

In the case of `Cc1c(OCCN(C)CCCF)ccc(F)c1[C@@H]1c2[nH]c3ccccc3c2C[C@@H](C(F)(F)F)N1C[C@H](C)C(=O)O` [Example 149, (S)-3-((1R,3S)-1-(6-fluoro-3-(2-((3-fluoropropyl)(methyl)amino)ethoxy)-2-methylphenyl)-3-(trifluoromethyl)-1,3,4,9-tetrahydro-2H-pyrido[3,4-b]indol-2-yl)-2-methylpropanoic acid], the solubility at 24 h [1] is reported as 523 µM (≈ 297 µg/mL), the IC50 [2] is reported as 0.85 nM and the “% downregulation (in brackets)” value [2] is reported as 86%. For the same compound, the IC50 [3] was 1.5 nM, the logD [4] was 2.2 and the “Human plasma protein binding (% free)” value [5] was 5.3 % free. For the same compound, the IC50 [6] was > 40000 nM.
`C[C@@H]1Cc2c([nH]c3ccccc23)[C@@H](c2nccc(NCCNCCCF)c2F)N1CC(F)(F)F` [Example 94, N1-(3-fluoro-2-((1S,3R)-3-methyl-2-(2,2,2-trifluoroethyl)-2,3,4,9-tetrahydro-1H-pyrido[3,4-b]indol-1-yl)pyridin-4-yl)-N2-(3-fluoropropyl)ethane-1,2-diamine] showed a solubility at 24 h [1] of 698 µM (≈ 336 µg/mL), an IC50 [2] of 9.2 nM and an IC50 [3] of 3.6 nM. For the same compound, the logD [4] was 2.4, the “Human plasma protein binding (% free)” value [5] was 7 % free and the IC50 [6] was 9900 nM.
With `C[C@@H]1Cc2c([nH]c3ccccc23)[C@@H](c2c(F)ccc(OCCNCCCF)c2Cl)N1CC(F)(F)CO` [Example 85, 3-((1R,3R)-1-(2-chloro-6-fluoro-3-(2-((3-fluoropropyl)amino)ethoxy)phenyl)-3-methyl-1,3,4,9-tetrahydro-2H-pyrido[3,4-b]indol-2-yl)-2,2-difluoropropan-1-ol] the solubility at 24 h [1] was 224 µM (≈ 118 µg/mL), the IC50 [2] was 0.089 nM and the IC50 [3] was 1.3 nM. The logD [4] was 3.1, the “Human plasma protein binding (% free)” value [5] was 1.0 % free and the IC50 [6] was 4200 nM.
`C[C@@H]1Cc2c([nH]c3ccccc23)[C@@H](c2c(F)cnc(OCCNCCCF)c2F)N1CC1(F)CC1` [Example 108, N-(2-((3,5-difluoro-4-((1R,3R)-2-((1-fluorocyclopropyl)methyl)-3-methyl-2,3,4,9-tetrahydro-1H-pyrido[3,4-b]indol-1-yl)pyridin-2-yl)oxy)ethyl)-3-fluoropropan-1-amine] showed a solubility at 24 h [1] of 375 µM (≈ 184 µg/mL), an IC50 [2] of 0.3 nM and an IC50 [3] of 1 nM. The logD [4] was 3.2, the “Human plasma protein binding (% free)” value [5] was 2.3 % free and the IC50 [6] was 6000 nM.
In the case of `Cc1ncc(OCCNCCCF)cc1[C@@H]1c2[nH]c3ccccc3c2C[C@@H](C)N1CC(F)(F)F` [Example 37, 3-fluoro-N-(2-((6-methyl-5-((1R,3R)-3-methyl-2-(2,2,2-trifluoroethyl)-2,3,4,9-tetrahydro-1H-pyrido[3,4-b]indol-1-yl)pyridin-3-yl)oxy)ethyl)propan-1-amine], the solubility at 24 h [1] is reported as 434 µM (≈ 208 µg/mL), the IC50 [2] is reported as 35 nM and the IC50 [3] is reported as 12 nM. The logD [4] was 3.6, the “Human plasma protein binding (% free)” value [5] was 2.3 % free and the IC50 [6] was 3500 nM.
With `COc1ccc(OCCNCCCF)c(F)c1[C@@H]1c2[nH]c3ccccc3c2C[C@@H](C)N1CC1(F)CC1` [Example 83, 3-fluoro-N-(2-(2-fluoro-3-((1R,3R)-2-((1-fluorocyclopropyl)methyl)-3-methyl-2,3,4,9-tetrahydro-1H-pyrido[3,4-b]indol-1-yl)-4-methoxyphenoxy)ethyl)propan-1-amine] the solubility at 24 h [1] was 595 µM (≈ 298 µg/mL), the IC50 [2] was 0.28 nM and the “% downregulation (in brackets)” value [2] was 90%. For the same compound, the IC50 [3] was 1.7 nM, the logD [4] was 2.9 and the “Human plasma protein binding (% free)” value [5] was 2.5 % free. For the same compound, the IC50 [6] was 4000 nM.
Work on `C[C@@H]1Cc2c([nH]c3ccccc23)[C@@H](c2cc(OCCNCCCF)cc(F)c2F)N1CC(F)(F)F` [Example 30, N-(2-(3,4-difluoro-5-((1R,3R)-3-methyl-2-(2,2,2-trifluoroethyl)-2,3,4,9-tetrahydro-1H-pyrido[3,4-b]indol-1-yl)phenoxy)ethyl)-3-fluoropropan-1-amine] yielded a solubility at 24 h [1] of 39 µM (≈ 19.5 µg/mL), an IC50 [2] of 0.32 nM and an IC50 [3] of 2.1 nM. For the same compound, the logD [4] was 4.1, the “Human plasma protein binding (% free)” value [5] was 0.72 % free and the IC50 [6] was 2300 nM.
`COc1c(F)cc(OCCNCCCF)c(F)c1[C@@H]1c2[nH]c3ccccc3c2C[C@@H](C)N1CC(F)(F)F` [Example 29, N-(2-(2,5-difluoro-4-methoxy-3-((1R,3R)-3-methyl-2-(2,2,2-trifluoroethyl)-2,3,4,9-tetrahydro-1H-pyrido[3,4-b]indol-1-yl)phenoxy)ethyl)-3-fluoropropan-1-amine] showed a solubility at 24 h [1] of 58 µM (≈ 30.7 µg/mL), an IC50 [2] of 0.44 nM and an IC50 [3] of 2 nM. For the same compound, the logD [4] was > 3.2, the “Human plasma protein binding (% free)” value [5] was <3.2 % free and the IC50 [6] was 5100 nM.
`Cc1c([C@@H]2c3[nH]c4ccccc4c3C[C@@H](C)N2C[C@H](C)C(=O)O)ccnc1OCCNCCCF` [Example 132, (S)-3-((1R,3R)-1-(2-(2-((3-fluoropropyl)amino)ethoxy)-3-methylpyridin-4-yl)-3-methyl-1,3,4,9-tetrahydro-2H-pyrido[3,4-b]indol-2-yl)-2-methylpropanoic acid] gave a solubility at 24 h [1] of 914 µM (≈ 441 µg/mL), an IC50 [2] of 0.98 nM and an IC50 [3] of 2 nM. The logD [4] was 0.6, the “Human plasma protein binding (% free)” value [5] was 34 % free and the IC50 [6] was > 40000 nM.
`C[C@@H]1Cc2c([nH]c3ccccc23)[C@@H](c2c(F)c(F)cc(OCCNCCCF)c2F)N1CC(F)(F)F` [Example 32, 3-fluoro-N-(2-(2,4,5-trifluoro-3-((1R,3R)-3-methyl-2-(2,2,2-trifluoroethyl)-2,3,4,9-tetrahydro-1H-pyrido[3,4-b]indol-1-yl)phenoxy)ethyl)propan-1-amine] showed a solubility at 24 h [1] of 55 µM (≈ 28.5 µg/mL), an IC50 [2] of 0.38 nM and an IC50 [3] of 2.7 nM. The logD [4] was 4.1, the “Human plasma protein binding (% free)” value [5] was 0.52 % free and the IC50 [6] was 5800 nM.
Compound `Cc1ccc(OCCNCCCF)c(C)c1[C@@H]1c2[nH]c3ccccc3c2C[C@@H](C)N1CC(F)(F)F` [Example 79, N-(2-(2,4-dimethyl-3-((1R,3R)-3-methyl-2-(2,2,2-trifluoroethyl)-2,3,4,9-tetrahydro-1H-pyrido[3,4-b]indol-1-yl)phenoxy)ethyl)-3-fluoropropan-1-amine] has a solubility at 24 h [1] of 3.9 µM (≈ 1.92 µg/mL), an IC50 [2] of 0.16 nM and an IC50 [3] of 1.4 nM. The logD [4] was 4.8, the “Human plasma protein binding (% free)” value [5] was <0.4 % free and the IC50 [6] was 10000 nM.
`COc1ccc(NCCNCCCF)nc1[C@@H]1c2[nH]c3ccccc3c2C[C@@H](C)N1CC(F)(F)F` [Example 43, N1-(3-fluoropropyl)-N2-(5-methoxy-6-((1S,3R)-3-methyl-2-(2,2,2-trifluoroethyl)-2,3,4,9-tetrahydro-1H-pyrido[3,4-b]indol-1-yl)pyridin-2-yl)ethane-1,2-diamine] gave a solubility at 24 h [1] of 358 µM (≈ 177 µg/mL), an IC50 [2] of 220 nM and an IC50 [3] of 82 nM. The logD [4] was 2.2, the “Human plasma protein binding (% free)” value [5] was 2.8 % free and the IC50 [6] was 3100 nM.
In the case of `C[C@@H]1Cc2c([nH]c3ccccc23)[C@@H](c2c(Cl)ccc(OCCNCCCF)c2F)N1C[C@H](C)C(=O)O` [Example 54, (S)-3-((1R,3R)-1-(6-chloro-2-fluoro-3-(2-((3-fluoropropyl)amino)ethoxy)phenyl)-3-methyl-1,3,4,9-tetrahydro-2H-pyrido[3,4-b]indol-2-yl)-2-methylpropanoic acid], the solubility at 24 h [1] is reported as > 1000 µM, the IC50 [2] is reported as 1 nM and the IC50 [3] is reported as 5.9 nM. For the same compound, the logD [4] was 0.9, the “Human plasma protein binding (% free)” value [5] was 18 % free and the IC50 [6] was > 40000 nM.
With `Cc1c([C@@H]2c3[nH]c4ccccc4c3C[C@@H](C)N2C[C@@H](C)C(=O)O)ccnc1OCCN(C)CCCF` [Example 161, (R)-3-((1R,3R)-1-(2-(2-((3-fluoropropyl)(methyl)amino)ethoxy)-3-methylpyridin-4-yl)-3-methyl-1,3,4,9-tetrahydro-2H-pyrido[3,4-b]indol-2-yl)-2-methylpropanoic acid] the solubility at 24 h [1] was > 1000 µM, the IC50 [2] was 1.1 nM and the IC50 [3] was 1.7 nM. The logD [4] was 1.3, the “Human plasma protein binding (% free)” value [5] was 6.3 % free and the IC50 [6] was > 40000 nM.
With `COc1ccc(OCCNCCCF)c(F)c1[C@@H]1c2[nH]c3ccccc3c2C[C@@H](C)N1CC(F)(F)CO` [Example 81, 2,2-difluoro-3-((1R,3R)-1-(2-fluoro-3-(2-((3-fluoropropyl)amino)ethoxy)-6-methoxyphenyl)-3-methyl-1,3,4,9-tetrahydro-2H-pyrido[3,4-b]indol-2-yl)propan-1-ol] the solubility at 24 h [1] was 736 µM (≈ 385 µg/mL), the IC50 [2] was 0.17 nM and the IC50 [3] was > 110 nM. For the same compound, the logD [4] was 2.6, the “Human plasma protein binding (% free)” value [5] was 2.9 % free and the IC50 [6] was 3900 nM.
In the case of `COc1ccc(OCCNCCCF)c(C)c1[C@@H]1c2[nH]c3ccccc3c2C[C@@H](C)N1CC(F)(F)F` [Example 26, 3-fluoro-N-(2-(4-methoxy-2-methyl-3-((1R,3R)-3-methyl-2-(2,2,2-trifluoroethyl)-2,3,4,9-tetrahydro-1H-pyrido[3,4-b]indol-1-yl)phenoxy)ethyl)propan-1-amine], the solubility at 24 h [1] is reported as 8 µM (≈ 4.06 µg/mL), the IC50 [2] is reported as 0.16 nM and the IC50 [3] is reported as 0.85 nM. The logD [4] was 4.6, the “Human plasma protein binding (% free)” value [5] was 0.22 % free and the IC50 [6] was 4100 nM.
Work on `C[C@@H]1Cc2c([nH]c3ccccc23)[C@@H](c2c(F)ccc(OCCNCCCF)c2F)N1CC1(S(C)(=O)=O)CC1` [Example 77, N-(2-(2,4-difluoro-3-((1R,3R)-3-methyl-2-((1-(methylsulfonyl)cyclopropyl)methyl)-2,3,4,9-tetrahydro-1H-pyrido[3,4-b]indol-1-yl)phenoxy)ethyl)-3-fluoropropan-1-amine] yielded a solubility at 24 h [1] of 410 µM (≈ 225 µg/mL), an IC50 [2] of 6.2 nM and an IC50 [3] of 7.3 nM. For the same compound, the logD [4] was 2.4, the “Human plasma protein binding (% free)” value [5] was 5.5 % free and the IC50 [6] was 5400 nM.
With `C[C@@H]1Cc2c([nH]c3ccccc23)[C@@H](c2cc(OCCNCCCF)ccc2CO)N1CC(F)(F)F` [Example 70, (4-(2-((3-fluoropropyl)amino)ethoxy)-2-((1R,3R)-3-methyl-2-(2,2,2-trifluoroethyl)-2,3,4,9-tetrahydro-1H-pyrido[3,4-b]indol-1-yl)phenyl)methanol] the solubility at 24 h [1] was 231 µM (≈ 114 µg/mL), the IC50 [2] was 180 nM and the IC50 [3] was 1300 nM. For the same compound, the logD [4] was 2.2, the “Human plasma protein binding (% free)” value [5] was 23 % free and the IC50 [6] was 6300 nM.
